Measured values taken from article PMC4839570, “Novel Anthra[1,2-c][1,2,5]Thiadiazole-6,11-Diones as Promising Anticancer Lead Compounds: Biological Evaluation, Characterization & Molecular Targets Determination” (PLoS ONE, 2016).
Like-named read-outs stand apart in the source and are kept apart here.

How the values were obtained:
Format in all cases: cell-based
[1] = system: K-562; experiment: NCI-60 cytotoxicity screen
[2] = system: MOLT-4; experiment: NCI-60 cytotoxicity screen
[3] = system: HOP-92; experiment: NCI-60 cytotoxicity screen
[4] = system: NCI-H226; experiment: NCI-60 cytotoxicity screen
[5] = system: NCI-H23; experiment: NCI-60 cytotoxicity screen
[6] = system: NCI-H460; experiment: NCI-60 cytotoxicity screen
[7] = system: HCT-15; experiment: NCI-60 cytotoxicity screen
[8] = system: SF-295; experiment: NCI-60 cytotoxicity screen
[9] = system: SNB-19; experiment: NCI-60 cytotoxicity screen
[10] = system: U251; experiment: NCI-60 cytotoxicity screen
[11] = system: SK-MEL-28; experiment: NCI-60 cytotoxicity screen
[12] = system: IGROV1; experiment: NCI-60 cytotoxicity screen
[13] = system: NCI/ADR-RES; experiment: NCI-60 cytotoxicity screen
[14] = system: ACHN; experiment: NCI-60 cytotoxicity screen
[15] = system: CAKI-1; experiment: NCI-60 cytotoxicity screen
[16] = system: RXF 393; experiment: NCI-60 cytotoxicity screen
[17] = system: UO-31; experiment: NCI-60 cytotoxicity screen
[18] = system: MCF7; experiment: NCI-60 cytotoxicity screen
[19] = system: T-47D; experiment: NCI-60 cytotoxicity screen
[20] = system: HBC-4; experiment: JFCR-39 cytotoxicity screen
[21] = system: HBC-5; experiment: JFCR-39 cytotoxicity screen
[22] = system: MCF-7; experiment: JFCR-39 cytotoxicity screen
[23] = system: SF-268; experiment: JFCR-39 cytotoxicity screen
[24] = system: NCI-H226; experiment: JFCR-39 cytotoxicity screen
[25] = system: NCI-H460; experiment: JFCR-39 cytotoxicity screen
[26] = system: A549; experiment: JFCR-39 cytotoxicity screen
[27] = system: DMS273; experiment: JFCR-39 cytotoxicity screen
[28] = system: MKN7; experiment: JFCR-39 cytotoxicity screen
[29] = system: DU-145; experiment: JFCR-39 cytotoxicity screen
[30] = system: PC-3; experiment: JFCR-39 cytotoxicity screen
[31] = Homo sapiens, Fig 7, read-out: mean log10 of the GI50 values (converted)
[32] = Homo sapiens, five-dose, read-out: GI50
[33] = Homo sapiens, five-dose, read-out: LC50 (the source's name)
[34] = Homo sapiens, read-out: LC50 (the source's name)

O=C1c2ccccc2C(=O)c2c1ccc1nsnc21 [NSC745885, anthra[1,2-c][1,2,5]thiadiazole-6,11-dione]
GI50 ([1]; Homo sapiens, K562, Fig 7, read-out: mean log10 of the GI50 values (converted)): 2.51 µM
GI50 ([1]; Homo sapiens, K562, five-dose, read-out: GI50): 1.92 µM
CC50 ([1]; Homo sapiens, K562, five-dose, read-out: LC50 (the source's name)): 41.2 µM
TGI ([1]; five-dose): 15.9 µM
GI50 [2, 31]: 0.891 µM
GI50 [2, 32]: 0.49 µM
CC50 [2, 33]: 4.71 µM
TGI ([2]; five-dose): 1.84 µM
GI50 [3, 31]: 2.69 µM
GI50 [3, 32]: 2.52 µM
CC50 [3, 33]: > 100 µM
TGI ([3]; five-dose): 6.64 µM
GI50 [4, 31]: 8.32 µM
LC50 (concentration killing 50% of cells) ([4]; Homo sapiens, five-dose): 63.7 µM
GI50 [4, 32]: 4.48 µM
TGI ([4]; five-dose): 21.6 µM
GI50 [5, 31]: 1.07 µM
GI50 [5, 32]: 1.44 µM
CC50 [5, 33]: > 100 µM
TGI ([5]; five-dose): 6.04 µM
GI50 ([6]; Homo sapiens, NCI-460, five-dose, read-out: GI50): 3.27 µM
CC50 ([6]; Homo sapiens, NCI-460, five-dose, read-out: LC50 (the source's name)): 47.3 µM
GI50 ([6]; Homo sapiens, NCI-H460, Fig 7, read-out: mean log10 of the GI50 values (converted)): 2.45 µM
TGI ([6]; NCI-460, five-dose): 14.3 µM
GI50 [7, 31]: 2.04 µM
GI50 [7, 32]: 1.71 µM
CC50 [7, 33]: 8.12 µM
TGI ([7]; five-dose): 3.72 µM
GI50 [8, 31]: 2.4 µM
GI50 [8, 32]: 1.9 µM
CC50 [8, 33]: 8.56 µM
TGI ([8]; five-dose): 4.04 µM
GI50 [9, 31]: 2.04 µM
GI50 [9, 32]: 2.28 µM
CC50 [9, 33]: 26 µM
TGI ([9]; five-dose): 5.82 µM
GI50 ([10]; Homo sapiens, U-251, Fig 7, read-out: mean log10 of the GI50 values (converted)): 2.51 µM
GI50 ([10]; Homo sapiens, U-251, five-dose, read-out: GI50): 1.61 µM
CC50 ([10]; Homo sapiens, U-251, five-dose, read-out: LC50 (the source's name)): 5.44 µM
TGI ([10]; five-dose): 2.96 µM
GI50 [11, 31]: 4.27 µM
GI50 [11, 32]: 1.85 µM
CC50 [11, 33]: 6.18 µM
TGI ([11]; five-dose): 3.38 µM
GI50 ([12]; Homo sapiens, IGROV-1, Fig 7, read-out: mean log10 of the GI50 values (converted)): 1.38 µM
GI50 ([12]; Homo sapiens, IGROV-1, five-dose, read-out: GI50): 1.36 µM
CC50 ([12]; Homo sapiens, IGROV-1, five-dose, read-out: LC50 (the source's name)): 6.35 µM
TGI ([12]; five-dose): 2.94 µM
GI50 [13, 31]: 0.891 µM
GI50 [13, 32]: 1.86 µM
CC50 [13, 33]: > 100 µM
TGI ([13]; five-dose): 12.6 µM
GI50 [14, 31]: 1.58 µM
GI50 [14, 32]: 1.46 µM
CC50 [14, 33]: 5.27 µM
inhibition at 10 µM ([14]; Homo sapiens, single dose 10 μM, read-out: growth inhibition): 94.3%
TGI ([14]; five-dose): 2.77 µM
GI50 [15, 31]: 1.86 µM
GI50 [15, 32]: 1.61 µM
CC50 [15, 33]: 5.44 µM
TGI ([15]; five-dose): 2.96 µM
GI50 ([16]; Homo sapiens, RXF393, Fig 7, read-out: mean log10 of the GI50 values (converted)): 1.74 µM
GI50 [16, 32]: 1.75 µM
CC50 [16, 33]: 14.6 µM
TGI ([16]; five-dose): 4.40 µM
GI50 [17, 31]: 1.78 µM
GI50 [17, 32]: 1.62 µM
CC50 [17, 33]: 6.01 µM
TGI ([17]; five-dose): 3.12 µM
GI50 [18, 31]: 1.38 µM
GI50 [18, 32]: 1.53 µM
CC50 [18, 33]: 7.29 µM
TGI ([18]; five-dose): 3.34 µM
GI50 ([19]; Homo sapiens, T47D, Fig 7, read-out: mean log10 of the GI50 values (converted)): 0.724 µM
GI50 ([19]; Homo sapiens, T47D, five-dose, read-out: GI50): 1.39 µM
CC50 ([19]; Homo sapiens, T47D, five-dose, read-out: LC50 (the source's name)): 8.27 µM
TGI ([19]; five-dose): 3.39 µM
TGI [20]: 3.0 µM
GI50 ([20]; Homo sapiens, HBC4): 1.7 µM
CC50 ([20]; Homo sapiens, HBC4, read-out: LC50 (the source's name)): 5.5 µM
TGI [21]: 3.5 µM
GI50 ([21]; Homo sapiens, HBC5): 1.9 µM
CC50 ([21]; Homo sapiens, HBC5, read-out: LC50 (the source's name)): 6.2 µM
TGI [22]: 3.9 µM
GI50 ([22]; Homo sapiens, MCF7): 1.9 µM
CC50 ([22]; Homo sapiens, MCF7, read-out: LC50 (the source's name)): 8.1 µM
TGI [23]: 3.8 µM
GI50 ([23]; Homo sapiens): 2 µM
CC50 [23, 34]: 7.1 µM
TGI [24]: 3.4 µM
GI50 ([24]; Homo sapiens): 1.6 µM
CC50 [24, 34]: 7.3 µM
TGI [25]: 13.0 µM
GI50 ([25]; Homo sapiens): 3.4 µM
CC50 [25, 34]: 67 µM
TGI [26]: 41.0 µM
GI50 ([26]; Homo sapiens): 19 µM
CC50 [26, 34]: 89 µM
TGI [27]: 3.8 µM
GI50 ([27]; Homo sapiens, DMS-273): 2 µM
CC50 ([27]; Homo sapiens, DMS-273, read-out: LC50 (the source's name)): 7 µM
TGI [28]: 3.7 µM
GI50 ([28]; Homo sapiens, MKN-7): 1.1 µM
CC50 ([28]; Homo sapiens, MKN-7, read-out: LC50 (the source's name)): 17 µM
TGI [29]: 3.5 µM
GI50 ([29]; Homo sapiens): 2 µM
CC50 [29, 34]: 6.1 µM
TGI [30]: 2.8 µM
GI50 ([30]; Homo sapiens): 1.3 µM
CC50 [30, 34]: 6 µM
